{
  "source": "patent US9255100B2",
  "about": "(BAYER INTELLECTUAL PROPERTY GMBH, priority 2010, dated 2016)",
  "molecular_target": "T1, N-terminally GST-tagged human full length recombinant Mps-1 kinase (Homo sapiens, UniProt P33981)",
  "T1 construct": "N-terminally GST-tagged human full length recombinant Mps-1 kinase; purchased Invitrogen, Karslruhe, Germany PV4071",
  "T1 sequence (P33981 1-857)": "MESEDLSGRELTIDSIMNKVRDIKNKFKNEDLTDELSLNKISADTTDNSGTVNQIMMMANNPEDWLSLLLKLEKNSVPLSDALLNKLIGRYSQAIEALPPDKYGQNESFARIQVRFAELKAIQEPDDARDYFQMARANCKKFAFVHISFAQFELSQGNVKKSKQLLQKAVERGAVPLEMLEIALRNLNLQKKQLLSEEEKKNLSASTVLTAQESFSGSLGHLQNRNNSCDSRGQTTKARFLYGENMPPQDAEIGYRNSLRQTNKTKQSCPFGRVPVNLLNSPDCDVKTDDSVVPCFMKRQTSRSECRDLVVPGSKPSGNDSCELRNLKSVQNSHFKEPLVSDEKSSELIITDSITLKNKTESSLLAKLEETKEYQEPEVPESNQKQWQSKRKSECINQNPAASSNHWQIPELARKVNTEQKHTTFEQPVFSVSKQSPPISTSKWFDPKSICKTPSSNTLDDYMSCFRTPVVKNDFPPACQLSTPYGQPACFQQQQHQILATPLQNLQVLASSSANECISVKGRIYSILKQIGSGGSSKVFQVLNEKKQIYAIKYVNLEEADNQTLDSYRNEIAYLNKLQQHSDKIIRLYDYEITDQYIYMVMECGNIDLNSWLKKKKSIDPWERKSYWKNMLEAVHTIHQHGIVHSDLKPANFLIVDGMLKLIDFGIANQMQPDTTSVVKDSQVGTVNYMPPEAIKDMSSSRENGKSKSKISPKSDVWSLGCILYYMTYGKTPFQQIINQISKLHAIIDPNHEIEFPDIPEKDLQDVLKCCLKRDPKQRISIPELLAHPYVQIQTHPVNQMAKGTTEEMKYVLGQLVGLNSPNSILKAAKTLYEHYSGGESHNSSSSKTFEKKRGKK",
  "experiment": "Mps-1 kinase assay (TR-FRET)",
  "type": "biochemical",
  "settings": "Mps1 IC50 [nM], 10 μM ATP, 1 μM peptide substrate, 60 min at 22° C.",
  "summary_of_the_method": "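Inhibition of Mps-1 (N-terminal GST fusion, full length) toward a biotinylated peptide is read as Eu-to-XLent TR-FRET. Enzyme level, around 1 nM final, follows lot activity.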",
  "data": [
    {"smiles": "CNC(=O)c1ccc(-c2cnc3c(NCC4CCOCC4)cc(Oc4ccc(OC)cc4)nn23)cc1C", "note": "[Example 570, 4-{6-(4-methoxyphenoxy)-8-[(tetrahydro-2H-pyran-4-ylmethyl)amino]imidazo[1,2-b]pyridazin-3-yl}-N,2-dimethylbenzamide]", "values": [
      {"measurement": "IC50", "value": "< 1", "unit": "nM"}
    ]},
    {"smiles": "Cc1cc(-c2cnc3c(NCC(C)(C)O)cc(Oc4cc(F)cc(F)c4)nn23)ccc1C(=O)NC1CC1", "note": "[Example 262, N-cyclopropyl-4-{6-(3,5-difluorophenoxy)-8-[(2-hydroxy-2-methylpropyl)amino]imidazo[1,2-b]pyridazin-3-yl}-2-methylbenzamide]", "values": [
      {"measurement": "IC50", "value": 0.2, "unit": "nM"}
    ]},
    {"smiles": "COc1cc(C(=O)NC2CC2)ccc1-c1cnc2c(NCCC(F)(F)F)cc(-c3ccc(F)cc3)nn12", "note": "[Example 52, N-cyclopropyl-4-{6-(4-fluorophenyl)-8-[(3,3,3-trifluoropropyl)amino]imidazo[1,2-b]pyridazin-3-yl}-3-methoxybenzamide]", "values": [
      {"measurement": "IC50", "value": 3.2, "unit": "nM"}
    ]},
    {"smiles": "CCNC(=O)c1ccc(-c2cnc3c(NCC(F)F)cc(Oc4ccc(OC)cc4F)nn23)cc1C", "note": "[Example 605, 4-{8-[(2,2-difluoroethyl)amino]-6-(2-fluoro-4-methoxyphen-oxy)imidazo[1,2-b]pyridazin-3-yl}-N-ethyl-2-methylbenzamide]", "values": [
      {"measurement": "IC50", "value": 1.2, "unit": "nM"}
    ]},
    {"smiles": "Cc1cc(-c2cnc3c(NC[C@H]4CCCO4)cc(-c4ccncc4)nn23)ccc1C(=O)NC1CC1", "note": "[Example 35, N-cyclopropyl-2-methyl-4-[6-(pyridin-4-yl)-8-{[(2R)-tetrahydrofuran-2-ylmethyl]amino}imidazo[1,2-b]pyridazin-3-yl]benzamide]", "values": [
      {"measurement": "IC50", "value": 2.5, "unit": "nM"}
    ]},
    {"smiles": "Cc1cc(-c2cnc3c(NCC(C)(C)O)cc(Nc4ccccn4)nn23)ccc1C(=O)NC1CC1", "note": "[Example 357, N-cyclopropyl-4-{8-[(2-hydroxy-2-methylpropyl)amino]-6-(pyridin-2-ylamino)imidazo[1,2-b]pyridazin-3-yl}-2-methylbenzamide]", "values": [
      {"measurement": "IC50", "value": 4.4, "unit": "nM"}
    ]},
    {"smiles": "CNC(=O)c1ccc(-c2cnc3c(NCCN4CCOCC4)cc(Oc4ccc(OC)cc4F)nn23)cc1C", "note": "[Example 565, 4-[6-(2-fluoro-4-methoxyphenoxy)-8-{[2-(morpholin-4-yl)ethyl]amino}imidazo[1,2-b]pyridazin-3-yl]-N,2-dimethylbenzamide]", "values": [
      {"measurement": "IC50", "value": 3.5, "unit": "nM"}
    ]},
    {"smiles": "COc1cc(Nc2cc(NCCC(F)(F)F)c3ncc(-c4ccc(C(=O)NC5CC5)c(C)c4)n3n2)ccc1F", "note": "[Example 422, N-cyclopropyl-4-{6-[(4-fluoro-3-methoxyphenyl)amino]-8-[(3,3,3-trifluoropropyl)amino]imidazo[1,2-b]pyridazin-3-yl}-2-methylbenzamide]", "values": [
      {"measurement": "IC50", "value": 0.4, "unit": "nM"}
    ]},
    {"smiles": "Cc1cccc(Nc2cc(NCC(C)(C)O)c3ncc(-c4ccc(C(=O)NC5CC5)c(C)c4)n3n2)c1", "note": "[Example 308, N-cyclopropyl-4-{8-[(2-hydroxy-2-methylpropyl)amino]-6-[(3-methylphenyl)amino]imidazo[1,2-b]pyridazin-3-yl}-2-methylbenzamide]", "values": [
      {"measurement": "IC50", "value": 1, "unit": "nM"}
    ]},
    {"smiles": "Cc1cc(-c2cnc3c(NCC(C)(C)O)cc(O/C=C(/F)C(F)(F)CO)nn23)ccc1C(=O)NC1CC1", "note": "[Example 241B, N-cyclopropyl-4-(8-[(2-hydroxy-2-methylpropyl)amino]-6-{[(1E)-2,3,3-trifluoro-4-hydroxybut-1-en-1-yl]oxy}imidazo[1,2-b]pyridazin-3-yl)-2-methylbenzamide]", "values": [
      {"measurement": "IC50", "value": 3.4, "unit": "nM"}
    ]},
    {"smiles": "Cc1cc(-c2cnc3c(NCC(C)(C)O)cc(Oc4ccc(Cl)cc4)nn23)ccc1C(=O)NC1CC1", "note": "[Example 90, 4-{6-(4-Chlorophenoxy)-8-[(2-hydroxy-2-methylpropyl)amino]imidazo[1,2-b]pyridazin-3-yl}-N-cyclopropyl-2-methylbenzamide]", "values": [
      {"measurement": "IC50", "value": 0.5, "unit": "nM"}
    ]},
    {"smiles": "CC=Cc1cc(NCCC(F)(F)F)c2ncc(-c3ccc(C(=O)NC4CC4)c(C)c3)n2n1", "note": "(mixture of isomers) [Example 23, N-cyclopropyl-2-methyl-4-{6-[(1E/Z)-prop-1-en-1-yl]-8-[(3,3,3-trifluoropropyl)amino]imidazo[1,2-b]pyridazin-3-yl}benzamide]", "values": [
      {"measurement": "IC50", "value": 2.4, "unit": "nM"}
    ]},
    {"smiles": "Cc1ccccc1Oc1cc(NCCC(F)(F)F)c2ncc(-c3ccc(C(=O)NC4CC4)c(C)c3)n2n1", "note": "[Example 474, N-cyclopropyl-2-methyl-4-{6-(2-methylphenoxy)-8-[(3,3,3-trifluoro-propyl)amino]imidazo [1,2-b]pyridazin-3-yl} benzamide]", "values": [
      {"measurement": "IC50", "value": 0.3, "unit": "nM"}
    ]},
    {"smiles": "CC(C)CNc1cc(-c2cnn(C)c2)nn2c(-c3ccc(C(=O)NC4CC4)cc3)cnc12", "note": "[Example 117, N-cyclopropyl-4-{8-[(2-methylpropyl)amino]-6-(1-methyl-1H-pyrazol-4-yl)imidazo[1,2-b]pyridazin-3-yl}benzamide]", "values": [
      {"measurement": "IC50", "value": 3.3, "unit": "nM"}
    ]},
    {"smiles": "CCNC(=O)c1ccc(-c2cnc3c(NCCC(F)(F)F)cc(Oc4ccc(OC)c(F)c4)nn23)cc1C", "note": "[Example 604, N-ethyl-4-{6-(3-fluoro-4-methoxyphenoxy)-8-[(3,3,3-trifluoropropyl)a-mino]imidazo[1,2-b]pyridazin-3-yl}-2-methylbenzamide]", "values": [
      {"measurement": "IC50", "value": "< 1", "unit": "nM"}
    ]},
    {"smiles": "CNC(=O)c1ccc(-c2cnc3c(NCC4CCOCC4)cc(Oc4cc(F)ccc4C)nn23)cc1C", "note": "[Example 572, 4-{6-(5-fluoro-2-methylphenoxy)-8-[(tetrahydro-2H-pyran-4-ylmethyl)amino]imidazo[1,2-b]pyridazin-3-yl}-N,2-dimethylbenzamide]", "values": [
      {"measurement": "IC50", "value": "< 1", "unit": "nM"}
    ]},
    {"smiles": "Cc1cc(-c2cnc3c(NCCC(F)(F)F)cc(Nc4cccc(F)c4)nn23)ccc1C(=O)NC1CC1", "note": "[Example 324, N-cyclopropyl-4-{6-[(3-fluorophenyl)amino]-8-[(3,3,3-trifluoropropyl)amino]imidazo[1,2-b]pyridazin-3-yl}-2-methyl-benzamide]", "values": [
      {"measurement": "IC50", "value": 0.3, "unit": "nM"}
    ]},
    {"smiles": "CSc1cc(NCc2ccnn2C)c2ncc(-c3ccc(C(=O)NC4CC4)c(C)c3)n2n1", "note": "[Example 237, N-cyclopropyl-2-methyl-4-[8-{[(1-methyl-1H-pyrazol-5-yl)methyl]amino}-6-(methylsulfanyl)imidazo[1,2-b]pyridazin-3-yl]benzamide]", "values": [
      {"measurement": "IC50", "value": 5.6, "unit": "nM"}
    ]},
    {"smiles": "COc1ccc(Cc2cc(NCCC(F)(F)F)c3ncc(-c4ccc(C(=O)NC5CC5)c(C)c4)n3n2)cc1F", "note": "[Example 483, N-cyclopropyl-4-{6-(3-fluoro-4-methoxybenzyl)-8-[(3,3,3-tri-fluoropropyl)amino]imidazo [1,2-b]pyridazin-3-yl}-2-methylbenzamide]", "values": [
      {"measurement": "IC50", "value": 0.1, "unit": "nM"}
    ]},
    {"smiles": "Cc1cc(-c2cnc3c(NCC(C)(C)O)cc(Sc4nncn4C)nn23)ccc1C(=O)NC1CC1", "note": "[Example 413, N-cyclopropyl-4-{8-[(2-hydroxy-2-methylpropyl)amino]-6-[(4-methyl-4H-1,2,4-triazol-3-yl)sulfanyl]imidazo[1,2-b]pyridazin-3-yl}-2-methylbenzamide]", "values": [
      {"measurement": "IC50", "value": 45.7, "unit": "nM"}
    ]},
    {"smiles": "Cc1cc(-c2cnc3c(NCC(C)(C)O)cc(Nc4ccccc4F)nn23)ccc1C(=O)NC1CC1", "note": "[Example 384, N-cyclopropyl-4-{6-[(2-fluorophenyl)amino]-8-[(2-hydroxy-2-methylpropyl)amino]imidazo[1,2-b]pyridazin-3-yl}-2-methylbenzamide]", "values": [
      {"measurement": "IC50", "value": 0.4, "unit": "nM"}
    ]},
    {"smiles": "Cc1cc(-c2cnc3c(NCC(C)(C)O)cc(-c4ccc(CO)cc4)nn23)ccc1C(=O)NC1CC1", "note": "[Example 155, N-cyclopropyl-4-{6-[4-(hydroxymethyl)phenyl]-8-[(2-hydroxy-2-methylpropyl)amino]imidazo[1,2-b]pyridazin-3-yl}-2-methylbenzamide]", "values": [
      {"measurement": "IC50", "value": 3.6, "unit": "nM"}
    ]},
    {"smiles": "Cc1cc(-c2cnc3c(NCc4ccn(C)n4)cc(Oc4cccc(F)c4)nn23)ccc1C(=O)NC1CC1", "note": "[Example 488, N-cyclopropyl-4-[6-(3-fluoro-phenoxy)-8-{[(1-methyl-1H-pyrazol-3-yl)methyl]amino}imidazo[1,2-b]pyridazin-3-yl]-2-methylbenzamide]", "values": [
      {"measurement": "IC50", "value": 0.1, "unit": "nM"}
    ]},
    {"smiles": "Cc1cc(-c2cnc3c(NCC4CCS(=O)(=O)CC4)cc(Sc4ccccc4)nn23)ccc1C(=O)NC1CC1", "note": "[Example 302, N-cyclopropyl-4-[8-{[(1,1-dioxidotetrahydro-2H-thiopyran-4-yl)methyl]amino}-6-(phenylsulfanyl)imidazo[1,2-b]pyridazin-3-yl]-2-methylbenzamide]", "values": [
      {"measurement": "IC50", "value": 0.3, "unit": "nM"}
    ]},
    {"smiles": "Cc1cc(-c2cnc3c(NCC(C)(C)O)cc(Nc4cccnc4)nn23)ccc1C(=O)NC1CC1", "note": "[Example 359, N-cyclopropyl-4-{8-[(2-hydroxy-2-methylpropyl)amino]-6-(pyridin-3-ylamino)imidazo[1,2-b]pyridazin-3-yl}-2-methylbenzamide]", "values": [
      {"measurement": "IC50", "value": 1.2, "unit": "nM"}
    ]},
    {"smiles": "Cc1cc(-c2cnc3c(NCCC(F)(F)F)cc(-c4ccnn4C)nn23)ccc1C(=O)NC1CC1", "note": "[Example 10, N-cyclopropyl-2-methyl-4-{6-(1-methyl-1H-pyrazol-5-yl)-8-[(3,3,3-trifluoropropyl)amino]imidazo[1,2-b]pyridazin-3-yl}benzamide]", "values": [
      {"measurement": "IC50", "value": "< 1", "unit": "nM"}
    ]}
  ]
}
